System: MDMA acute toxicity in mice
Assay: Protective activity against MDMA acute toxicity (survival) in mice
Assay type: in vivo, C57B1/6J mice
Conditions: inhibitor i.p. 5-120 minutes before toxic dose of MDMA; FIG. 6A
Description: Next step was to determine whether compounds blocking the enhanced expression of GABA transporters may restraint MDMA-induced hyperthermia. We ran trials to determine whether the mortality levels causes by MDMA administration would be affected by treatment with suspected GABA transporter inhibiting compounds Tiagabine, nipecotic acid derivative NO-711, and Vigabatrin which have been used hitherto as anti-epileptics.
Mice were administered dose(s) of mg/ml of MDMA according to the following schedule and were […] injected with a dose of the GABA transporter blocker. In the first set of experiments the effective toxic dose of MDMA was determined. C57B1/6J mice, 2-3 months old, 6 mice in each group, were tested with different concentration of the drug, prepared in saline and injected intraperitoneally. Saline solution was used as a control. The lowest concentration of the drug causing 100% death within 60 minutes was used in the following experiments. Mice (8 in each group) were injected (i.p.) with different concentrations of the tested GABA transporter inhibitor, or other compound, and 5-120 minutes later were injected with the toxic dose of MDMA. […]

Compound: Cc1ccsc1C(=CCCN1CCC[C@@H](C(=O)O)C1)c1sccc1C [Tiagabine, (R)-1-[4,4-Bis(3-methyl-2-thienyl)-3-butenyl]-3-piperidinecarboxylic acid]
- Survival of MDMA-treated mice: significantly improved the survival
